Non-standard residues stand in square brackets, D forms with d. Residues, ends and D or L forms follow the SMILES beside them. No end group written: not given here. *: point of attachment. Tic‑OH = tetrahydroisoquinoline-3-carboxylic acid (hydroxy-substituted), constrained Tyr mimetic; Cit = NC(=O)NCCC[C@H](N)C(=O)O; Acm = CC(=O)NC*
How the values were obtained:
[1] = test system: angiogenesis in the chick; assay: Chick angiogenesis model; assay type: in vivo; details: laminin-stimulated; model not stated at the place (Nelson et al 1995)
[2] = test system: Endothelial cells (SK HEP-1 and BRCE); details: shown previously; cited from earlier work
[3] = test system: angiogenesis in the chick; details: shown previously; cited from earlier work
67 kDa laminin receptor = molecular target: T1, 67 kDa laminin receptor (Homo sapiens, UniProt P08865); assay: Cell attachment to biotinylated mEGF(33-42) with anti-laminin receptor or anti-EGF receptor antibodies; assay type: cell-based
T1 construct: endogenous in cells
Procedure: Briefly, 96-well plates were coated with 100 μl/well streptavidin (5 μg/ml in carbonate buffer pH 9.6) and following an overnight incubation at 37° C., wells were washed with CFS (3×100 μl) and the plastic blocked with casein (0.2% in CFS). The plates were then incubated at room temperature for 45 min and washed with CFS as previously detailed. Biotinylated mEGF(33-42) in CFS was then aliquoted into the wells (0.1 ml of 100 μM) and the plates incubated for 3 h at 37° C.
After a further block with 0.2% casein, the wells were washed with CFS (3×100 μl aliquots). Plates were kept at 4° C. and used within 2 h.
Cells were prepared as above and pre-incubated for 1 h at 37° C. with serial dilutions of anti-laminin receptor polyclonal (see below) or anti-EGF (R1) receptor monoclonal antibodies. Subsequent procedures were as detailed for the laminin attachment assay.

[4] = molecular target: T2, 67 kDa laminin receptor (67-LR) (Homo sapiens, UniProt P08865); assay: 125I-laminin displacement (competition binding) on T47-D or SK HEP-1 cells; details: relative to mEGF(33-42); 0.1 nM 125I-laminin, overnight 4° C.
T2 construct: endogenous in cells; host or cells: T47-D or SK HEP-1 cells (whole-cell suspension)
Procedure: ^125I-laminin was prepared using ^125I-labelled sodium iodide (Amersham, UK) and immobilised chloramine-T (Iodobeads; Pierce, Ill.). Prior to use, the beads were washed with 500 μl phosphate buffer (pH 6.5) to remove excess reagent from the support. These were then allowed to air dry and individual beads added to a solution of carrier free Na^125I, diluted with iodination buffer (phosphate buffer pH 7.4). The beads were allowed to equilibrate for 5 min.
Laminin (10 μg in 10 μl) was then diluted into the iodination buffer and the system incubated at 20° C. for 15 min. The solution was then removed from the reaction vessel and excess Na^125I and unincorporated ^125I2 separated from the iodinated protein by gel filtration on a GF-5 exclusion column (Pierce, Ill.). Iodinated laminin fractions were recovered at a specific activity of approximately 1.2 mCi/mg protein (864 Ci/mmol).
Near confluent cultures of T47-D or SK HEP-1 cells were removed from monolayer with 0.02% EGTA and passed through a G-25 syringe needle to produce single cell suspensions. Aliquots of each cell type (10^6 cells/ml) were dispensed into separate Ependorf tubes (1 ml each) and pelleted. The cells were then resuspended in 1 ml ice-cold RPMI (SK HEP-1) or DMEM (T47-D) containing 0.1% BSA and either laminin or synthetic peptide at the concentrations indicated. Iodinated laminin was then added to each cell suspension to give a final ^125I-laminin concentration of 0.1 nM (approximately 50,000 cpm). These mixtures were incubated overnight at 4° C.
The tubes were then microfuged at 10,000 g and the supernatant removed. After washing the pellet with 500 μl CFS, the remaining radioactivity was determined using a gamma radiation counter. Non-specific binding was determined by incubating cells with a 1000-fold molar excess of unlabelled laminin. All estimations were carried out in triplicate.
(§1) IC50 (concentration of unlabelled peptide required to produce 50% inhibition of radioligand binding) and EC50 (effective concentration for 50% inhibition of cell attachment) values were calculated using the Grafit curve-fitting programme (Erithacus Software, London, UK).

[5] = test system: Endothelial cells (SK HEP-1 and BRCE); assay: Migration assay (colloidal gold track area); assay type: cell-based; details: endothelial cells, 18 h
Procedure: The method used was basically as described by Albrecht-Buehler (1977). Briefly, coverslips (22×22 mm) were treated in 5% detergent (7×; ICN Biomedicals) and washed in alcohol to remove grease. After drying, they were immersed in gelatin solution (Sigma, 300 Bloom; 0.5 g in 300 ml distilled H2O) for 10 min. The coverslips were then dried by placing in a 70° C. oven for 45 min.
Colloidal gold suspension was prepared by adding 11 ml distilled H2O and 6 ml Na2CO3 (36.5 mM) to 1.8 ml AuHCl4 (14.5 mM). The mixture was heated to 95° C. at which point 1.8 ml of freshly prepared 0.1% formaldehyde solution was added; the temperature was maintained at 95° C. A suspension of colloidal gold was formed which was brown to absorbed light and blue to transmitted light.
The gold suspension, was then added to petri dishes containing individual coverslips and the plates incubated at 37° C. for 45 min. After washing with CFS (3×4 ml) to remove unattached gold particles, the coverslips were transferred to 6-well cluster dishes and UV sterilised.
Endothelial cells (SK HEP-1 and BRCE) in culture media (0.3 ml) were seeded onto the coverslips at an approximate density of 5×10^3 cells per well. The cells were allowed to plate down for 2 h at 37° C. after which the treatments were added. Assay systems were maintained for a further 18 h after which the cells were fixed using 3% gluteraldehyde in cacodylate buffer (pH 7.2).
The assays were examined using a Leica DM1RB phase contrast microscope and Q500MC image analysis system incorporating a JVC TK-1280E colour camera (Leica, Milton Keynes, UK). The track images of at least 30 cells were videocaptured and the area (representing migration response) determined for each. Statistical analysis of these areas was then carried out using Macintosh Instat software to perform both Kruskal-Wallis analysis of variance and Mann-Whitney U-tests in order to compare the treatment groups with controls.

67-LR = molecular target: T3, 67-LR (Homo sapiens, UniProt P08865); assay: Peptide screening for receptor interaction, cell adhesion and motility properties; assay type: cell-based
T3 construct: endogenous in cells
Description: In addition, using residue exchange between the two peptides and molecular modelling to predict three-dimensional structure, we wished to further investigate the role of individual mEGF(33-42) residues in laminin antagonism. A logical series of peptides was synthesised and screened for receptor interaction, cell adhesion and motility properties (Table 1a and 1b).

[6] = test system: cell attachment to laminin through the 67-LR (T-47D, SK HEP-1); assay: Laminin attachment assay; assay type: cell-based, human; details: relative to mEGF(33-42)
Procedure: Non-tissue culture grade 96-well plates, coated with 2.5 μg murine laminin in 50 μl CFS per well, were air-dried overnight at room temperature. […] After rinsing with CFS (100 μl), the plastic was saturated with casein (0.2% in CFS). Plates were incubated at room temperature for 45 min then washed extensively with CFS (3×100 μl).
After removal of culture media, cells were detached from monolayers by the action of EGTA (0.02% in CFS) at 37° C. The cells were then centrifuged at 800 g for 2 min and the pellet resuspended in DMEM (T-47D) or RPMI (SK HEP-1).
Cells, at a population density of 10^6 cells/ml, were then aliquoted (1 ml) into microfuge tubes containing the individual peptide sequences and incubated for 1 h at 37° C. The cells (100 μl aliquots) were then added to the pre-coated multi-well plates and incubated for a further 60 min. Incubation media were removed and the wells washed with CFS (3×100 μl) to rid the plates of non-adherent cells.
Attached cell numbers were evaluated spectrophotometrically at 620 nm after fixing with 10% formaldehyde and staining with crystal violet.
as §1

trypsin-like proteases = assay: Resistance to trypsin degradation; assay type: in vitro ADME

## Acetyl-C-[S-Acm]-VIGYSGDR-C-[S-Acm]NH2 (Ac-C(Acm)VIGYSGDRC(Acm)-NH2) [mEGF(33-42), capped synthetic peptide of residues 33 to 42 of murine epidermal growth factor, 67LR antagonist]
[1]
  angiogenic effects of laminin: inhibits the angiogenic effects of laminin
[2]
  basal and EGF-stimulated motility of primary and established endothelial cells: blocking the basal and EGF-stimulated motility
[3]
  EGF-stimulated angiogenic response in the early chick: inhibit the EGF-stimulated angiogenic response
67 kDa laminin receptor; 67-LR versus EGF receptor
  receptor that mediates the anti-angiogenic effects: mediated solely through the high affinity 67 kDa laminin receptor (67-LR) and not through the EGF receptor
67 kDa laminin receptor; biotinylated derivative of the peptide on streptavidin plates
  binding to the 67 kDa laminin receptor: bound to the 67 kDa laminin receptor
[4]
  receptor affinity, 125I-laminin displacement (IC50), in words: equipotent
[5]
  migration (motility) response: laminin agonist or antagonist: antagonist

## peptide III: mEGF(33-42) analogue with both isoleucine (P6) for serine and serine (P8) for aspartate (CVIGYIGSRC)
67-LR
  biological function (receptor binding, adhesion, motility): complete loss of biological function

## peptide V: mEGF(33-42) analogue, tyrosine (P5) substituted with Tic-OH (CVIG[Tic‑OH]SGDRC; cysteine pairing not given here)
[6]
  inhibition of cell attachment (adhesion) to laminin (EC50), in words: both receptor binding and adhesion responses were retained
[4]
  receptor affinity, 125I-laminin displacement (IC50), in words: both receptor binding and adhesion responses were retained
[5]
  migration (motility) response: laminin agonist or antagonist: agonist

## AVIGYSGDRC [peptide VIII, alanine scan of mEGF(33-42): alanine for cysteine (P1)]
[6]
  inhibition of cell attachment (adhesion) to laminin (EC50), in words: parallel decrease in their ability to block adhesion to laminin
[4]
  receptor affinity, 125I-laminin displacement (IC50), in words: dramatic decrease in receptor affinity
[5]
  migration (motility) response: laminin agonist or antagonist: weak laminin agonist

## CAIGYSGDRC [peptide VII, alanine scan of mEGF(33-42): Ala for Val]
[6]
  inhibition of cell attachment (adhesion) to laminin (EC50), in words: parallel decrease in their ability to block adhesion to laminin
[4]
  receptor affinity, 125I-laminin displacement (IC50), in words: dramatic decrease in receptor affinity

## CVAGYSGDRC [peptide VI, alanine scan of mEGF(33-42): Ala for Ile]
[6]
  inhibition of cell attachment (adhesion) to laminin (EC50), in words: parallel decrease in their ability to block adhesion to laminin
[4]
  receptor affinity, 125I-laminin displacement (IC50), in words: dramatic decrease in receptor affinity

## peptide II: mEGF(33-42) analogue, aspartate (P8) replaced with serine (CVIGYSGSRC)
67-LR
  biological function (receptor binding, adhesion, motility): complete loss of biological function

## CC[C@H](C)[C@H](NC(=O)[C@@H](NC(=O)[C@H](CSCNC(C)=O)NC(C)=O)C(C)C)C(=O)NCC(=O)N[C@@H](Cc1ccc(O)cc1)C(=O)N[C@@H](CO)C(=O)NCC(=O)N[C@@H](CC(=O)O)C(=O)N[C@@H](CCCNC(N)=O)C(=O)N[C@@H](CSCNC(C)=O)C(N)=O [peptide IV, AcC(Acm)-VIGYSGD-[Cit]-C-(Acm)-NH2] (Ac-C(Acm)VIGYSGD[Cit]C(Acm)-NH2)
[4]
  receptor affinity, 125I-laminin displacement (IC50), in words: increased both receptor binding and inhibition of attachment to laminin substrata
trypsin-like proteases
  resistance to trypsin / trypsin-like proteases: resistant to cleavage by trypsin-like proteases

## mEGF(33-42) analogue, isoleucine (P6) for serine; acetyl-Cys(ACM)-Val-Ile-Gly-Tyr-Ile-Gly-Asp-Arg-Cys(ACM)-NH2 (Ac-C(Acm)VIGYIGDRC(Acm)-NH2; SMILES CC[C@H](C)[C@H](NC(=O)[C@H](Cc1ccc(O)cc1)NC(=O)CNC(=O)[C@@H](NC(=O)[C@@H](NC(=O)[C@H](CSCNC(C)=O)NC(C)=O)C(C)C)[C@@H](C)CC)C(=O)NCC(=O)N[C@@H](CC(=O)O)C(=O)N[C@@H](CCCNC(=N)N)C(=O)N[C@@H](CSCNC(C)=O)C(N)=O) [peptide I]
[6]
  inhibition of cell attachment (adhesion) to laminin (EC50), in words: both reduced receptor affinity and potency in displacement of cell adhesion to laminin
[4]
  receptor affinity, 125I-laminin displacement (IC50), in words: reduced receptor affinity
[5]
  migration (motility) response: laminin agonist or antagonist: weak antagonist activities

## CVIGYAGDRC [X, alanine scan of mEGF(33-42): Ala for Ser (P6)]
[6]
  inhibition of cell attachment (adhesion) to laminin (EC50), in words: parallel decrease in their ability to block adhesion to laminin
[4]
  receptor affinity, 125I-laminin displacement (IC50), in words: dramatic decrease in receptor affinity

## CVIGYSGDRA [peptide IX, alanine scan of mEGF(33-42): alanine for cysteine at P10]
[6]
  inhibition of cell attachment (adhesion) to laminin (EC50), in words: retains both receptor binding and adhesion displacing activities
[4]
  receptor affinity, 125I-laminin displacement (IC50), in words: retains both receptor binding and adhesion displacing activities
[5]
  migration (motility) response: laminin agonist or antagonist: has the agonism of Lam.β-1(925-933)

## laminin
[4]
  receptor affinity, 125I-laminin displacement (IC50), in words: equipotent

Reference: patent US6995136B1, “Peptide fragments of murine epidermal growth factor as laminin receptor targets” (The Queen's University of Belfast, priority 1998, dated 2006)
